Experimental data published in patent publication US10350271B2, “Lipidated peptides for lowering blood glucose” (USTAV ORGANICKE CHEMIE A BIOCHEMIE AKADEMIE VED CR, V.V.I., priority 2014, dated 2019).
Square brackets hold non-standard residues; d marks the D form. Peptide text beside a SMILES is read from it. * marks the point of attachment. Phe(4-NO2) = N[C@@H](Cc1ccc([N+](=O)[O-])cc1)C(=O)O; Phe(3,4-Cl2) = N[C@@H](Cc1ccc(Cl)c(Cl)c1)C(=O)O; Phe(F5) = N[C@@H](Cc1c(F)c(F)c(F)c(F)c1F)C(=O)O; Palmitoyl = CCCCCCCCCCCCCCCC(=O)*; Myristoyl = CCCCCCCCCCCCCC(=O)*; Nle = CCCC[C@H](N)C(=O)O; Octanoyl = CCCCCCCC(=O)*

Key:
rat PrRP receptor = biological target: T1, rat PrRP receptor (Rattus norvegicus, UniProt Q64121); experiment: Competitive binding in RC-4B/C rat pituitary cells (125I-rat PrRP31); details: for Ki: displacement of 125I-rat PrRP31, read-out: Ki, RC-4B/C rat pituitary cells ^25I-rat PrRP31; for % of PrRP31, RC-4B/C rat pituitary cells: affinity relative to PrRP31
T1 construct: host or cells: RC-4B/C rat pituitary cell line
T1 sequence (Q64121 1-370): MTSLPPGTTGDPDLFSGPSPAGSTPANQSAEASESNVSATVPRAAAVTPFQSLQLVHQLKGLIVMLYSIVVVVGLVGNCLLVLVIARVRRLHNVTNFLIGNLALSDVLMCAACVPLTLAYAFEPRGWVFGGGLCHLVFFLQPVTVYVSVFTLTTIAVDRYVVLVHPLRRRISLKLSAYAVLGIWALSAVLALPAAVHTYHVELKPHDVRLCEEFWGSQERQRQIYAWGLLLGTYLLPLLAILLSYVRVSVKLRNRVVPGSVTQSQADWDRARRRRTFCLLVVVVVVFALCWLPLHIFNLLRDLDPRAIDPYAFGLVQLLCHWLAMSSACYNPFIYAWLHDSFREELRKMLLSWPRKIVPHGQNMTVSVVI
Procedure, shortened: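 Intact rat pituitary RC-4B/C cells incubated 60 min at room temperature with […] rat 125I-PrRP31 and unlabeled analog (10^−11 to 10^−4 mol·l^−1) in HEPES pH 7.4 buffer. Cell-bound radioactivity γ-counted after NaOH lysis; one-site competition fit.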

[1] = biological target: T2, human PrRP receptor GPR10 (Homo sapiens, UniProt P49683); experiment: Competitive binding in CHO cells transfected with human GPR10 (human 125I-PrRP31); details: for Ki: CHO cells, human 125I-PrRP31, read-out: Ki, GPR10 human receptor transfected in CHO cells; for % of PrRP31, GPR10 human receptor transfected in CHO cells: affinity relative to PrRP31
T2 construct: host or cells: CHO cells
T2 sequence (P49683 1-370): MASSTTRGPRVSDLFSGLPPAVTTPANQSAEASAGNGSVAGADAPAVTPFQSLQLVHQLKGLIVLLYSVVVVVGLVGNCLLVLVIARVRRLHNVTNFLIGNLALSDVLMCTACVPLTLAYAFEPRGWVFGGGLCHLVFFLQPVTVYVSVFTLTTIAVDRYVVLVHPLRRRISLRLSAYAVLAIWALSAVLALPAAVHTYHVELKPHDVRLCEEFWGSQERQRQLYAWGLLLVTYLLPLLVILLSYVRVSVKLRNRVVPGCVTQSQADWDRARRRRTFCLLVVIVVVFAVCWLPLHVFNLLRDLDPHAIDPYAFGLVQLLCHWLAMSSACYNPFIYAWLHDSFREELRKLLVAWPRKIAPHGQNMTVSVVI
Procedure, shortened: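 GPR10-transfected CHO cells (40-80 thousand/well) incubated 60 min at room temperature with 5×10^-11 mol·l^-1 human 125I-PrRP31 and unlabeled analog at 10^-11 to 10^-4 mol·l^-1 in Tris binding buffer pH 7.4. Cells solubilized in 0.1 mol/l NaOH, γ-counted; one-site nonlinear regression fit.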

C57BL/6 mice = experiment: Food intake in fasted mice after SC injection; format: in vivo; details: for Food intake in mice % of saline-treated group: 5 mg/kg SC, 45 min after injection
Procedure, shortened: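 Overnight-fasted animals (food removed 17 h before dosing, water available) in individual cages got saline, PrRP or lipidated PrRP analogs SC at 1-10 mg/kg.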

SMILES	Ki (rat PrRP receptor; RC-4B/C cells) [nM]	% of PrRP31, RC-4B/C rat pituitary cells (rat PrRP receptor) [%]	Ki [1] [nM]	% of PrRP31, GPR10 human receptor transfected in CHO cells [1] [%]	Food intake in mice % of saline-treated group (C57BL/6 mice) [%]	Binding affinity (rat PrRP receptor; RC-4B/C cells, statements referring to Table 2)	Effect on food intake in mice (C57BL/6 mice; SC)	Displacement of rat 125I-PrRP binding (rat PrRP receptor; RC-4B/C cells, rat PrRP receptor)	Displacement of human 125I-PrRP binding ([1]; human GPR10 receptor)
CCCCCCCCCCCCCCCC(=O)N[C@@H](CO)C(=O)N[C@@H](CCCNC(=N)N)C(=O)N[C@@H](C)C(=O)N[C@@H](Cc1c[nH]cn1)C(=O)N[C@@H](CCC(N)=O)C(=O)N[C@@H](Cc1c[nH]cn1)C(=O)N[C@@H](CO)C(=O)N[C@@H](CCCC)C(=O)N[C@@H](CCC(=O)O)C(=O)N[C@H](C(=O)N[C@@H](CCCNC(=N)N)C(=O)N[C@H](C(=O)N1CCC[C@H]1C(=O)N[C@@H](CC(=O)O)C(=O)N[C@H](C(=O)N[C@@H](CC(N)=O)C(=O)N1CCC[C@H]1C(=O)N[C@@H](C)C(=O)N[C@@H](Cc1c[nH]c2ccccc12)C(=O)N[C@@H](Cc1ccc(O)cc1)C(=O)N[C@H](C(=O)NCC(=O)N[C@@H](CCCNC(=N)N)C(=O)NCC(=O)N[C@H](C(=O)N[C@@H](CCCNC(=N)N)C(=O)N1CCC[C@H]1C(=O)N[C@H](C(=O)NCC(=O)N[C@@H](CCCNC(=N)N)C(=O)N[C@@H](Cc1ccc(Cl)c(Cl)c1)C(N)=O)C(C)C)[C@@H](C)CC)[C@@H](C)O)[C@@H](C)CC)[C@@H](C)O)[C@@H](C)O [Analog 15] (Palmitoyl-SRAHQHS[Nle]ETRTPDINPAWYTGRGIRPVGR[Phe(3,4-Cl2)]-NH2)	1.3 ± 0.29	379	1.05 ± 0.41	370	5				
CCCCCCCCCCCCCCCC(=O)N[C@@H](CO)C(=O)N[C@@H](CCCNC(=N)N)C(=O)N[C@@H](C)C(=O)N[C@@H](Cc1c[nH]cn1)C(=O)N[C@@H](CCC(N)=O)C(=O)N[C@@H](Cc1c[nH]cn1)C(=O)N[C@@H](CO)C(=O)N[C@@H](CCCC)C(=O)N[C@@H](CCC(=O)O)C(=O)N[C@H](C(=O)N[C@@H](CCCNC(=N)N)C(=O)N[C@H](C(=O)N1CCC[C@H]1C(=O)N[C@@H](CC(=O)O)C(=O)N[C@H](C(=O)N[C@@H](CC(N)=O)C(=O)N1CCC[C@H]1C(=O)N[C@@H](C)C(=O)N[C@@H](Cc1c[nH]c2ccccc12)C(=O)N[C@@H](Cc1ccc(O)cc1)C(=O)N[C@H](C(=O)NCC(=O)N[C@@H](CCCNC(=N)N)C(=O)NCC(=O)N[C@H](C(=O)N[C@@H](CCCNC(=N)N)C(=O)N1CCC[C@H]1C(=O)N[C@H](C(=O)NCC(=O)N[C@@H](CCCNC(=N)N)C(=O)N[C@@H](Cc1ccc([N+](=O)[O-])cc1)C(N)=O)C(C)C)[C@@H](C)CC)[C@@H](C)O)[C@@H](C)CC)[C@@H](C)O)[C@@H](C)O [Analog 18] (Palmitoyl-SRAHQHS[Nle]ETRTPDINPAWYTGRGIRPVGR[Phe(4-NO2)]-NH2)	0.58 ± 0.1	850	0.77 ± 0.28	505	0.7				
CCCCCCCCCCCCCC(=O)N[C@@H](CO)C(=O)N[C@@H](Cc1c[nH]cn1)C(=O)N[C@@H](CCC(N)=O)C(=O)N[C@@H](CCCNC(=N)N)C(=O)N1CCC[C@H]1C(=O)N[C@@H](C)C(=O)N[C@@H](CC(=O)O)C(=O)N[C@H](C(=O)N[C@@H](Cc1c[nH]cn1)C(=O)N[C@@H](Cc1c[nH]c2ccccc12)C(=O)N[C@@H](Cc1ccc(O)cc1)C(=O)N1CCC[C@H]1C(=O)N[C@@H](CCCNC(=N)N)C(=O)NCC(=O)N[C@@H](CCCC)C(=O)N[C@@H](Cc1ccccc1)C(=O)N1CCC[C@H]1C(=O)N[C@H](C(=O)N[C@H](C(=O)NCC(=O)N[C@@H](CCCNC(=N)N)C(=O)N[C@H](C(=O)N[C@H](C(=O)N[C@@H](C)C(=O)N[C@@H](CCCNC(=N)N)C(=O)N[C@@H](CC(N)=O)C(=O)NCC(=O)N[C@@H](CCC(=O)O)C(=O)N[C@H](C(=O)N[C@@H](CO)C(=O)N[C@@H](CCCNC(=N)N)C(=O)O)C(C)C)[C@@H](C)O)[C@@H](C)CC)[C@@H](C)CC)[C@@H](C)O)[C@@H](C)O [Analog 20] (Myristoyl-SHQRPADTHWYPRG[Nle]FPTIGRITARNGEVSR-OH; C-terminus assumed)	123 ± 16.1	4.6	262 ± 55.4	1.5	100				
CCCCCCCCCCCCCCCC(=O)N[C@@H](CO)C(=O)N[C@@H](CCCNC(=N)N)C(=O)N[C@@H](C)C(=O)N[C@@H](Cc1c[nH]cn1)C(=O)N[C@@H](CCC(N)=O)C(=O)N[C@@H](Cc1c[nH]cn1)C(=O)N[C@@H](CO)C(=O)N[C@@H](CCCC)C(=O)N[C@@H](CCC(=O)O)C(=O)N[C@H](C(=O)N[C@@H](CCCNC(=N)N)C(=O)N[C@H](C(=O)N1CCC[C@H]1C(=O)N[C@@H](CC(=O)O)C(=O)N[C@H](C(=O)N[C@@H](CC(N)=O)C(=O)N1CCC[C@H]1C(=O)N[C@@H](C)C(=O)N[C@@H](Cc1c[nH]c2ccccc12)C(=O)N[C@@H](Cc1ccc(O)cc1)C(=O)N[C@H](C(=O)NCC(=O)N[C@@H](CCCNC(=N)N)C(=O)NCC(=O)N[C@H](C(=O)N[C@@H](CCCNC(=N)N)C(=O)N1CCC[C@H]1C(=O)N[C@H](C(=O)NCC(=O)N[C@@H](CCCNC(=N)N)C(=O)N[C@@H](Cc1c(F)c(F)c(F)c(F)c1F)C(N)=O)C(C)C)[C@@H](C)CC)[C@@H](C)O)[C@@H](C)CC)[C@@H](C)O)[C@@H](C)O [Analog 22] (Palmitoyl-SRAHQHS[Nle]ETRTPDINPAWYTGRGIRPVGR[Phe(F5)]-NH2)		966		203	41				
CCCCCCCCCCCCCCCC(=O)N[C@@H](CO)C(=O)N[C@@H](CCCNC(=N)N)C(=O)N[C@@H](C)C(=O)N[C@@H](Cc1c[nH]cn1)C(=O)N[C@@H](CCC(N)=O)C(=O)N[C@@H](Cc1c[nH]cn1)C(=O)N[C@@H](CO)C(=O)N[C@@H](CCCC)C(=O)N[C@@H](CCC(=O)O)C(=O)N[C@H](C(=O)N[C@@H](CCCNC(=N)N)C(=O)N[C@H](C(=O)N1CCC[C@H]1C(=O)N[C@@H](CC(=O)O)C(=O)N[C@H](C(=O)N[C@@H](CC(N)=O)C(=O)N1CCC[C@H]1C(=O)N[C@@H](C)C(=O)N[C@@H](Cc1c[nH]c2ccccc12)C(=O)N[C@@H](Cc1ccc(O)cc1)C(=O)N[C@H](C(=O)NCC(=O)N[C@@H](CCCNC(=N)N)C(=O)NCC(=O)N[C@H](C(=O)N[C@@H](CCCNC(=N)N)C(=O)N1CCC[C@H]1C(=O)N[C@H](C(=O)NCC(=O)N[C@@H](CCCNC(=N)N)C(=O)N[C@@H](Cc1ccc(O)cc1)C(N)=O)C(C)C)[C@@H](C)CC)[C@@H](C)O)[C@@H](C)CC)[C@@H](C)O)[C@@H](C)O [Analog 24] (Palmitoyl-SRAHQHS[Nle]ETRTPDINPAWYTGRGIRPVGRY-NH2)		1120		248	22				
CC[C@H](C)[C@H](NC(=O)[C@H](CCCNC(=N)N)NC(=O)[C@@H]1CCCN1C(=O)[C@@H](NC(=O)CNC(=O)[C@@H](CCCNC(=N)N)NC(=O)[C@H](N)Cc1ccccc1)C(C)C)C(=O)NCC(=O)N[C@@H](CCCNC(=N)N)C(=O)NCC(=O)N[C@H](C(=O)N[C@@H](Cc1ccc(O)cc1)C(=O)N[C@@H](Cc1c[nH]c2ccccc12)C(=O)N[C@@H](C)C(=O)N1CCC[C@H]1C(=O)N[C@@H](CC(N)=O)C(=O)N[C@H](C(=O)N[C@@H](CC(=O)O)C(=O)N1CCC[C@H]1C(=O)N[C@H](C(N)=O)[C@@H](C)O)[C@@H](C)CC)[C@@H](C)O [Analog 25] (H-[dF][dR]GVPRIGRGTYWAPNIDPT-NH2)		0.09		0.06		very low binding affinity	no effect		
CCCCCCCC(=O)N[C@H](C(=O)N1CCC[C@H]1C(=O)N[C@@H](CC(=O)O)C(=O)N[C@H](C(=O)N[C@@H](CC(N)=O)C(=O)N1CCC[C@H]1C(=O)N[C@@H](C)C(=O)N[C@@H](Cc1c[nH]c2ccccc12)C(=O)N[C@@H](Cc1ccc(O)cc1)C(=O)N[C@@H](C)C(=O)N[C@@H](CO)C(=O)N[C@@H](CCCNC(=N)N)C(=O)NCC(=O)N[C@H](C(=O)N[C@@H](CCCNC(=N)N)C(=O)N1CCC[C@H]1C(=O)N[C@H](C(=O)NCC(=O)N[C@@H](CCCNC(=N)N)C(=O)N[C@@H](Cc1ccccc1)C(N)=O)C(C)C)[C@@H](C)CC)[C@@H](C)CC)[C@@H](C)O [Analog 39] (Octanoyl-TPDINPAWYASRGIRPVGRF-NH2)	0.93 ± 0.23	530	1.94 ± 0.32	201	100			nmol·l^−1 range	nmol·l^−1 range
